Active and inactive are the calls of the source.
Tests used:
[1] = HPDE-C7 pancreatic duct cell viability loss – fluorescence, HTS (AID 430); format: functional, cell-based; conditions: Homo sapiens
Estrogen receptor = molecular target: T1, Estrogen receptor (Homo sapiens, UniProt P03372);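 note: potency for inhibiting coactivator peptide recruitment to the receptor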
T1 sequence (P03372 whole entry): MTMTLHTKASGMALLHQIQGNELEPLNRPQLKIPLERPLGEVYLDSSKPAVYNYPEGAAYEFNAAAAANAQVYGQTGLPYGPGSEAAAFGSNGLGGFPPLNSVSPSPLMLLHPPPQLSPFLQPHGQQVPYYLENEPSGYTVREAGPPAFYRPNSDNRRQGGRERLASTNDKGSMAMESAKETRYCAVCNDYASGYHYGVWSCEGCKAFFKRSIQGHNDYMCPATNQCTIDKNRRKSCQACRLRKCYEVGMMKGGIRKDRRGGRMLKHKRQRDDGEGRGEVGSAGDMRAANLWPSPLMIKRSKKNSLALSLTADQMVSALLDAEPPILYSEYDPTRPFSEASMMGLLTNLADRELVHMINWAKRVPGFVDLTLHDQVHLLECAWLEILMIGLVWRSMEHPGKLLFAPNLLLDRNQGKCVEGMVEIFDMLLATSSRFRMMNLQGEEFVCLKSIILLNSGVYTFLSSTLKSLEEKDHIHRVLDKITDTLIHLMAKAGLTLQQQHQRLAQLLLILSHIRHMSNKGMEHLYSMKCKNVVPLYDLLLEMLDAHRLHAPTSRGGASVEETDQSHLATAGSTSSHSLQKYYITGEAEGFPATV

[2] = viability loss of HPDE-C7K cells – cell-based, fluorescence, HTS, primary screen (AID 431); format: functional; conditions: Homo sapiens
[3] = molecular target: G-protein coupled receptor 55 (Homo sapiens, UniProt Q9Y2T6); assay: selective activators of receptor GPR55 – imaging, U2OS cells, beta-arrestin-GFP redistribution, primary screen (AID 1961); format: functional
Chain of G-protein coupled receptor 55 (Q9Y2T6 whole entry): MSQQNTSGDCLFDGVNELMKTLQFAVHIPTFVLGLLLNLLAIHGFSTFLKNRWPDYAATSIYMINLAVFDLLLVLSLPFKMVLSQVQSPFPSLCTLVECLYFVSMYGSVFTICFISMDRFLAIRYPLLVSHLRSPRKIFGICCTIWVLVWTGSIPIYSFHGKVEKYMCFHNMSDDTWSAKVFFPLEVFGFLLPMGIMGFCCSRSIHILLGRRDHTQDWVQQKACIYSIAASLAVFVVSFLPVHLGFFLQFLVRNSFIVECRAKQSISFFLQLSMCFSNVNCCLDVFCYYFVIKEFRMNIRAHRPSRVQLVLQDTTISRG

[4] = molecular target: Peroxisome proliferator-activated receptor gamma/Nuclear receptor coactivator 1 (Homo sapiens, UniProt P37231); assay: (§1) TR-FRET dose response biochemical High Throughput Screening assay for agonists of the steroid receptor coactivator 1 (SRC-1) recruitment by the peroxisome proliferator-activated receptor gamma (PPAR gamma): non-selective agonists. [Related pubchem assays (depositor defined):AID1300, AID1808, AID504735, AID631]; format: protein assay
[5] = tested on: Streptococcus sp. 'group A'; assay: Streptococcus pyogenes SK(-)GAS viability under kanamycin – luminescence, BacTiterGlo, confirmation, counter-screen for streptokinase expression inhibitor project, dose response (AID 1900); format: functional, organism-based
[6] = molecular target: Peroxisome proliferator-activated receptor gamma/Nuclear receptor coactivator 3 (Homo sapiens, UniProt P37231); assay: as §1, with “3 (SRC-3)” for “1 (SRC-1)”, “assays: 1301 (Confirmation screen.), 1048 (Primary screen.)]” for “assays (depositor defined):AID1300, AID1808, AID504735, AID631]”; format: functional
Chain of Peroxisome proliferator-activated receptor gamma/Nuclear receptor coactivator 3 (P37231 whole entry): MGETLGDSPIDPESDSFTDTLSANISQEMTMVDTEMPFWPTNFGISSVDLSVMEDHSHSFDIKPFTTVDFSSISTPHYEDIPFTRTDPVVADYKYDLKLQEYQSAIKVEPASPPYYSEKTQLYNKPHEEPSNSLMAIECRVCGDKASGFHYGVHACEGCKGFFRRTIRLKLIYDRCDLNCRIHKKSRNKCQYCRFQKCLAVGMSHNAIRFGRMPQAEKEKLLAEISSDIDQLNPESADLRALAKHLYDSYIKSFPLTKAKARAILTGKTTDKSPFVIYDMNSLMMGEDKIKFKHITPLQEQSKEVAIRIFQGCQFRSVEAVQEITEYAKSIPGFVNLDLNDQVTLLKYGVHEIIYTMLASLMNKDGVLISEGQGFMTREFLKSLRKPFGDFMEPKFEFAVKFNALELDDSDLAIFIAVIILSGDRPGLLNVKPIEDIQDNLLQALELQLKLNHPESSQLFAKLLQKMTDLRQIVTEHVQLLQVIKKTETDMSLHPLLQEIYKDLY
Chain of Peroxisome proliferator-activated receptor gamma/Nuclear receptor coactivator 3 (Q9Y6Q9 whole entry, further chain): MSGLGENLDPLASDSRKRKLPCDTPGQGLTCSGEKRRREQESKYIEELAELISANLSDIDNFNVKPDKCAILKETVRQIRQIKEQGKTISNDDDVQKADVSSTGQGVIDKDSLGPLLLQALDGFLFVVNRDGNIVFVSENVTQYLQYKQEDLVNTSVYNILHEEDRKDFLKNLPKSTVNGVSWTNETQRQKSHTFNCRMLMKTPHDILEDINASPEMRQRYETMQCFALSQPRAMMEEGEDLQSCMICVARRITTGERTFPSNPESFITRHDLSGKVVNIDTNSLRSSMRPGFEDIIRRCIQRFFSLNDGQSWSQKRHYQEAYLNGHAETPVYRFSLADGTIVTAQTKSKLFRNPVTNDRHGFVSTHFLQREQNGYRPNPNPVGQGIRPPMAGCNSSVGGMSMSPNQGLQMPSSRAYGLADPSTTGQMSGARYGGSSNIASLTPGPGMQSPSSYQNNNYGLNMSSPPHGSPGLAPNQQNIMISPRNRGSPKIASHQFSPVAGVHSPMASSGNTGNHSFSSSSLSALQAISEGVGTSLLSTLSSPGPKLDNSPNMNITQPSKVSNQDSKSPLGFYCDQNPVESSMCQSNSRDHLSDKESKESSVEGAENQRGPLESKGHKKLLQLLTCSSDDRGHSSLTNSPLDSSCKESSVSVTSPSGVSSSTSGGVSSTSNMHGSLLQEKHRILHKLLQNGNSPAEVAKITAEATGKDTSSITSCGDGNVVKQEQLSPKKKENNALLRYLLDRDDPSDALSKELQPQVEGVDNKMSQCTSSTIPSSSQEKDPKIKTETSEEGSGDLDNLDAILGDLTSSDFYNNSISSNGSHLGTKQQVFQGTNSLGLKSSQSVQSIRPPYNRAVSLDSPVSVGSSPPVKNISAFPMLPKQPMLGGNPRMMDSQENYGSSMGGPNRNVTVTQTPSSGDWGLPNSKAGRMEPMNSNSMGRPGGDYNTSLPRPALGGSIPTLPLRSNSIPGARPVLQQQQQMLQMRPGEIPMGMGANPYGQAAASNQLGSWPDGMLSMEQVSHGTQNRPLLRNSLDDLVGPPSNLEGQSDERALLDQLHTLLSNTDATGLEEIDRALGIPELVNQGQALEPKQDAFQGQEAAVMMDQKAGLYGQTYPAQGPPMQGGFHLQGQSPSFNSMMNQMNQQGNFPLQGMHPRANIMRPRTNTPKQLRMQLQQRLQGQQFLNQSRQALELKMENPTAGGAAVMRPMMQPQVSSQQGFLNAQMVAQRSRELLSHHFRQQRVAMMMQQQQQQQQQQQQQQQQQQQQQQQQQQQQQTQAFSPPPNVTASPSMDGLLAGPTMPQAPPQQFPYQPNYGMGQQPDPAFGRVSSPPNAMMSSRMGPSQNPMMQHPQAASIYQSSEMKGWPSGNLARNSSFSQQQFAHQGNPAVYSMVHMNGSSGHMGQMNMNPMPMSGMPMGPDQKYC

Streptokinase A = molecular target: T2, Streptokinase A (Streptococcus pyogenes serotype M1, UniProt P10520); assay: viability-normalized secreted streptokinase activity reduction – plasminogen activation absorbance, OD405, dose response (AID 1914); format: functional, Streptococcus pyogenes M1 GAS;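 note: secreted streptokinase activity via plasminogen activation per viability signal from cell pellet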
T2 sequence (P10520 whole entry): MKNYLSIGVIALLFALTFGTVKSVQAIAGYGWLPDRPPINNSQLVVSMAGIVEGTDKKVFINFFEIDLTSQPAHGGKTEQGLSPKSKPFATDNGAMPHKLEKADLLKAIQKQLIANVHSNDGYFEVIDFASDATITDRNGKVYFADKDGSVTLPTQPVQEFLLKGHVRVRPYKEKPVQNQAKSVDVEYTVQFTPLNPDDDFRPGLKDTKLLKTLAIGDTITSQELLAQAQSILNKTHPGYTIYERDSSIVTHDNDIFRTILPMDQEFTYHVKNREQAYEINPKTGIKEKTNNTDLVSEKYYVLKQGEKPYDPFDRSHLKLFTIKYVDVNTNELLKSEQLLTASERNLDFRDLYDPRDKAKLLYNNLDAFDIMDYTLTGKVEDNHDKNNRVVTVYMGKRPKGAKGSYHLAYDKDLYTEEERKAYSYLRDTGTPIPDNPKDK

[7] = molecular target: Peroxisome proliferator-activated receptor gamma/Nuclear receptor coactivator 2 (Homo sapiens, UniProt P37231); assay: TR-FRET dose response biochemical High Throughput Screening assay for agonists of the steroid receptor coactivator 2 (SRC-2) recruitment by the peroxisome proliferator-activated receptor gamma (PPAR gamma): non-selective agonists. [Related pubchem assays: 1297, 1032 ]; format: functional
Streptococcus = assay: GAS UMAA2166 growth inhibition – luminescence, BacTiterGlo, counter-screen for streptokinase expression inhibitor project, dose response (AID 1915); format: functional, organism-based;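 note: potency for reduction of bacterial viability or growth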
[8] = NIH-3T3 fibroblast cytotoxicity, dose response, cytotoxicity control, cell-based, fluorescence, Alamar Blue, secondary assay (AID 2327); format: functional;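 note: NIH-3T3 mouse fibroblasts cultured with fluconazole at 8 µg/mL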
[9] = luciferase reporter signal suppression in cells – H4 neuroglioma cells, luminescence, dose response (AID 1990); format: functional, cell-based
BJ [10] = assay: BJ-TERT fibroblast viability loss – cell-based, RAS-independent, luminescence, dose response (AID 1933); format: functional; conditions: Homo sapiens
[11] = Luminescence Cell-Based Dose Response HTS to Identify Inhibitors of 5'UTR Stem-Loop Driven Prion Protein mRNA Translation in H4 Neuroglioblastoma Cells. [Related pubchem assays: 1827 (Project Summary), 1813 (Primary HTS)]; format: functional
[12] = alpha-synuclein stem-loop luciferase translation blockers – H4 neuroglioma cells, luminescence, confirmation (AID 1988); format: functional, cell-based
BJ [13] = assay: cells; format: functional, cell-based; conditions: Homo sapiens
[14] = fluconazole-exposed Candida albicans growth modulators – fluorescence, retest, confirmation (AID 2467); format: functional, cell-based
[15] = microbe, parasite or virus in culture; format: functional; conditions: Mycobacterium tuberculosis
BJ [16] = assay: BJ-TERT-LT-ST fibroblast viability loss – cell-based, RAS-independent, luminescence, dose response (AID 1935); format: functional; conditions: Homo sapiens;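 note: BJ fibroblasts immortalized with TERT plus LT and ST oncogenes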
[17] = DRD fibroblast viability loss – cell-based, non-viral oncogenic, luminescence, dose response (AID 1934); format: functional; conditions: Homo sapiens
Bcl-2-related protein A1 = molecular target: T3, Bcl-2-related protein A1 (Mus musculus, UniProt Q07440); format: functional;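 note: confirmatory dose–response counterscreen on Bfl-1, used to check hits from a UBC13 polyubiquitin inhibitor campaign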
T3 sequence (Q07440 whole entry): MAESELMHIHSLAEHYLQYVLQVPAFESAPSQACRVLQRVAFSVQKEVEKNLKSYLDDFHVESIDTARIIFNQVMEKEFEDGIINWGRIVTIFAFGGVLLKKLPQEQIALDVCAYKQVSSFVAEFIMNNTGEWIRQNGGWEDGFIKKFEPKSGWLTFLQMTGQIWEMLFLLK

[18] = molecular target: T4, Ubiquitin-conjugating enzyme E2 N (Homo sapiens, UniProt P61088); format: functional
T4 sequence (P61088 whole entry): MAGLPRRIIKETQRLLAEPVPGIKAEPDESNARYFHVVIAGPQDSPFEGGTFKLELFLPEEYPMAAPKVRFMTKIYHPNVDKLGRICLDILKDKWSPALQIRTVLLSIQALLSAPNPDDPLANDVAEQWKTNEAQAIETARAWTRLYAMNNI

[19] = molecular target: T4, Ubiquitin-conjugating enzyme E2 N; format: functional; remark: listed apart in the source
HEK293 [20] = assay: inhibition of NOD1-driven NF-kB reporter – cell-based, luminescence, uHTS, primary screen (AID 1578); format: functional; conditions: Homo sapiens
HEK293 [21] = assay: cells; format: functional, cell-based; conditions: Homo sapiens
HEK293 [22] = assay: cells; format: functional, cell-based; conditions: Homo sapiens; remark: listed apart in the source
[23] = molecular target: Nucleotide-binding oligomerization domain-containing protein 2 (Homo sapiens, UniProt Q9HC29); assay: inhibition of NOD2-driven NF-kB reporter – cell-based, luminescence, uHTS, HEK293 (AID 1566); format: functional
Chain of Nucleotide-binding oligomerization domain-containing protein 2 (Q9HC29 whole entry, the tested form may be a part): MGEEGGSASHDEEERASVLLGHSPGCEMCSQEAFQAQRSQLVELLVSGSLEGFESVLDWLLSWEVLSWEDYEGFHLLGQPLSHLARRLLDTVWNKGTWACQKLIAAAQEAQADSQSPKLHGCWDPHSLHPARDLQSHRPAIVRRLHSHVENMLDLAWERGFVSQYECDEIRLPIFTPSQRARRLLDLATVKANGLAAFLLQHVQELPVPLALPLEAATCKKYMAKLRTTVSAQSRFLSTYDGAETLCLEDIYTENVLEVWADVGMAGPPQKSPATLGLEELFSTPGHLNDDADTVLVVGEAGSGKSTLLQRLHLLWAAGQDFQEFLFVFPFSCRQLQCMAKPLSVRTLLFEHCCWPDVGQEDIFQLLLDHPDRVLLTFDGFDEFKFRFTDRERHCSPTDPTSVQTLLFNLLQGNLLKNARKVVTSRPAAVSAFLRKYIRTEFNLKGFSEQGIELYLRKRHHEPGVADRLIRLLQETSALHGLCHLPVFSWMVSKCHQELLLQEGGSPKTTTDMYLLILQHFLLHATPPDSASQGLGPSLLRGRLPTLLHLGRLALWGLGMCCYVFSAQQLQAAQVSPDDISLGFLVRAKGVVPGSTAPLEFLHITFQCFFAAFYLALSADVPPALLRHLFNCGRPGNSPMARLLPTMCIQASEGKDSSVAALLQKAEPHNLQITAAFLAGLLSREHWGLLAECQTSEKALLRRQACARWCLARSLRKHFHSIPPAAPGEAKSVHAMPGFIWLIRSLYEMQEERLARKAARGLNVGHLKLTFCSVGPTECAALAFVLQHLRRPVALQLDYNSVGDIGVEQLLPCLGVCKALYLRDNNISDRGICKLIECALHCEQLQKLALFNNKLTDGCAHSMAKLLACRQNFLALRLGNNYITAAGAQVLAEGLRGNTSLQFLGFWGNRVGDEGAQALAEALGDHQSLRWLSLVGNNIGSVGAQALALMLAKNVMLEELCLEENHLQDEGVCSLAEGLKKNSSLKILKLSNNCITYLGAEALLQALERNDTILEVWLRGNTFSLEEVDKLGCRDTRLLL

HEK293 [24] = assay: NOD2 signaling inhibitors in MDP-stimulated cells, cell-based, uHTS, luminescence (AID 2001); format: functional; conditions: Homo sapiens
HEK293 [25] = assay: cells; format: functional, cell-based; conditions: Homo sapiens; remark: listed apart in the source
Nonstructural protein 1 = Nonstructural protein 1 (Influenza A virus, UniProt Q194T2); format: functional, Influenza A virus (A/California/07/2009(H1N1))
Chain of Nonstructural protein 1 (Q194T2 whole entry): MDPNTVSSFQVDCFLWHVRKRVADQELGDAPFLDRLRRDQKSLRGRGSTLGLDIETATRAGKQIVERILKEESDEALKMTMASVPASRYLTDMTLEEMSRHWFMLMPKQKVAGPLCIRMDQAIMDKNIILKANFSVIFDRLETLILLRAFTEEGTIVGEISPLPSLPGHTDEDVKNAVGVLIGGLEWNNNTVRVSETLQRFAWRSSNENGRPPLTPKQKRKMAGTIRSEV

[26] = molecular target: T5, Acyl-homoserine lactone acylase PvdQ (Pseudomonas aeruginosa (strain LESB58), UniProt Q9I194); assay: PvdQ acylase enzyme activity blockers – biochemical, fluorescence, plate reader and imaging, cherry-picks, dose response (AID 493231)
T5 sequence (Q9I194 whole entry): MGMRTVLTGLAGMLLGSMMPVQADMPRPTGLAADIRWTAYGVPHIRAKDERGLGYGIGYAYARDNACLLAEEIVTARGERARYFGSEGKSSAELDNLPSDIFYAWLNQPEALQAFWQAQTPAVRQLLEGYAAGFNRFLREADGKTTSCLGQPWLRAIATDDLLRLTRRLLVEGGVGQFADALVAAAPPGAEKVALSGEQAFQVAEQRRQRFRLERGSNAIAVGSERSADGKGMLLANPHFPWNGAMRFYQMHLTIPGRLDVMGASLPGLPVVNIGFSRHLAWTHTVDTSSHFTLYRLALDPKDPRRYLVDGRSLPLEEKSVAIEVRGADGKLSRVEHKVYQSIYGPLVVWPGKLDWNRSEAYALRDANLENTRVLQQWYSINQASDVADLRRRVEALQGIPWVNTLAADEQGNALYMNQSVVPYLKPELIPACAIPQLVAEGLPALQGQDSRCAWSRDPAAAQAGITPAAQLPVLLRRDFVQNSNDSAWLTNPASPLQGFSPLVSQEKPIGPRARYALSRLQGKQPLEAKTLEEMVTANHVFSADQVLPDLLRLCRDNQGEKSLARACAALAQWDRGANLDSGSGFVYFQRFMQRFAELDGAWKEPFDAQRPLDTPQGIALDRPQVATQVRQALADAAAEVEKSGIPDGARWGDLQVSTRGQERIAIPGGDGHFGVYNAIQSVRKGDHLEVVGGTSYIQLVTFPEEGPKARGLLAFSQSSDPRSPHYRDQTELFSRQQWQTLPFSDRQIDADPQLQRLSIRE

Question: For Cc1ccc(-c2nn3c(C)nnc3s2)cc1NC(=O)c1ccc(-c2cccc(Cl)c2)o1, which EC50 [1] is on record?
Answer: The EC50 was 15.4 µM (active).

Question: And the IC50 (Estrogen receptor)?
Answer: The IC50 was > 50 µM (not active).

Question: What about the EC50 [2] of the same compound?
Answer: The EC50 was 17.7 µM (active).

Question: And the EC50 [3]?
Answer: The EC50 was 17.7 µM (inactive).

Question: Which results are given for CSc1ccccc1-c1nnc(S)o1?
Answer: EC50 [4]: 22.3 µM (inactive); EC50 [5]: > 150 µM (not active); EC50 [6]: > 79.4 µM (not active); EC50 (Streptokinase A): > 150 µM (not active); EC50 [7]: 4.77 µM (active); EC50 (Streptococcus): > 150 µM (not active)

Question: For CC[n+]1c(/C=C/N(C)c2ccccc2)n(-c2ccccc2)c2ccc(-c3nc4ccccc4s3)cc21, which EC50 [8] is on record?
Answer: The EC50 was 90 µM (active).

Question: What about the EC50 [9] of the same compound?
Answer: Its EC50 is 0.35 µM (active).

Question: And the EC50 [5]?
Answer: The EC50 was 3.27 µM (active).

Question: And the EC50 (BJ [10])?
Answer: Its EC50 is 2.49 µM (inconclusive).

Question: And the EC50 [11]?
Answer: The EC50 was 5.72 µM (active).

Question: And the EC50 [12]?
Answer: The EC50 was 0.387 µM (active).

Question: And the EC50 (Streptokinase A)?
Answer: The EC50 was 13.3 µM (active).

Question: And the EC50 (BJ [13])?
Answer: Its EC50 is 2.93 µM (inconclusive).

Question: What about the EC50 [14] of the same compound?
Answer: Its EC50 is 0.337 µM (active).

Question: What about the CC50 [15] of the same compound?
Answer: The CC50 was 3.06 µM (active).

Question: What about the EC50 (BJ [16]) of the same compound?
Answer: The EC50 was 2.7 µM (inconclusive).

Question: What about the EC50 [17] of the same compound?
Answer: The EC50 was 3.03 µM (active).

Question: What about the EC50 (Streptococcus) of the same compound?
Answer: The EC50 was 12 µM (active).

Question: What about the EC50 [3] of the same compound?
Answer: Its EC50 is > 32 µM (inactive).

Question: What about the IC50 (Bcl-2-related protein A1) of the same compound?
Answer: The IC50 was 13.2 µM (active).

Question: And the IC50 [18]?
Answer: Its IC50 is 9.83 µM (active).

Question: What about the IC50 [19] of the same compound?
Answer: The IC50 was 7.42 µM (active).

Question: What does the source list for C/C(=N\NC(=O)c1ccccc1F)c1ccccn1?
Answer: EC50 (HEK293 [20]): 18 µM (active); EC50 (BJ [10]): 12 µM (inconclusive); IC50 (HEK293 [21]): 9.17 µM (active); EC50 (BJ [13]): 4.68 µM (inconclusive); IC50 (HEK293 [22]): > 20 µM (inactive); EC50 [23]: > 20 µM (inactive); IC50 (HEK293 [24]): 3.76 µM (inactive); IC50 (HEK293 [25]): > 20 µM (inactive); EC50 (BJ [16]): 10.9 µM (active); EC50 [17]: 2.9 µM (active); IC50 (Nonstructural protein 1): 5.72 µM (active)

Question: Which EC50 (HEK293 [20]) does the source give for CCc1c(C)nc2ccc(Br)cc2c1SCCC#N here?
Answer: The EC50 was 3.05 µM (active).

Question: And the IC50 (HEK293 [21])?
Answer: The IC50 was 1.29 µM (active).

Question: And the IC50 (HEK293 [22])?
Answer: Its IC50 is > 20 µM (inactive).

Question: What about the EC50 [23] of the same compound?
Answer: Its EC50 is 3.84 µM (active).

Question: What about the IC50 (HEK293 [24]) of the same compound?
Answer: Its IC50 is 1.74 µM (active).

Question: What about the IC50 (HEK293 [25]) of the same compound?
Answer: The IC50 was > 20 µM (inactive).

Question: For Cc1ccc2scc(CN3CCCC3)c2c1, which AC50 [26] is on record?
Answer: Its AC50 is 5.66 µM (active).

Source: ChEMBL document CHEMBL1201862, “PubChem BioAssay data set” (2004)
